Data published in paper PMC12501029, “Discovery of a CNS active GSK3 degrader using orthogonally reactive linker screening” (Nature Communications, 2025).
One block for each molecule: values may come before it.

Tests used:
[1] = Intrinsic clearance (Cli), mouse liver microsomes; format: in vitro ADME; conditions: 0.5 µM, scaling factor 48 mg microsomal protein per g liver
Experimental: (§1) Test compound (0.5 µM) was incubated with female CD1 mouse, male rat Han Wistar and pooled human liver microsomes (Xenotech^TM; 0.5 mg/mL 50 mM potassium phosphate buffer, pH7.4) and the reaction started with addition of excess NADPH (8 mg/mL 50 mM potassium phosphate buffer, pH7.4). Immediately, at time zero, then at 3, 6, 9, 15 and 30 min an aliquot (50 µL) of the incubation mixture was removed and mixed with acetonitrile (100 uL) to stop the reaction. An internal standard was added to all samples, the samples centrifuged to sediment precipitated protein and the plates then sealed prior to UPLC-MSMS analysis (Xevo TQ-S Micro, Waters^TM). XLfit (IDBS, UK) was used to calculate the exponential decay and consequently the rate constant (k) from the ratio of peak area of test compound to internal standard at each timepoint. The rate of intrinsic clearance (CLi) of each test compound was then calculated using the following calculation:1 CLi(mL/min/gliver)=kxVxMicrosomalproteinyield Where V (mL/mg protein) is the incubation volume/mg protein added and microsomal protein yield is taken as 48 mg, 46 mg and 40 mg protein/g liver for mouse, rat and human, respectively. Verapamil (0.5 µM) was used as a positive control to confirm acceptable assay performance.

[2] = Intrinsic clearance (Cli), rat liver microsomes; format: in vitro ADME; conditions: 0.5 µM, scaling factor 46 mg microsomal protein per g liver
Experimental: as §1

[3] = Intrinsic clearance (Cli), human liver microsomes; format: in vitro ADME; conditions: 0.5 µM, scaling factor 40 mg microsomal protein per g liver
Experimental: as §1

[4] = test system: GSK3β Ser9 and GSK3β Tyr216 phosphorylation; assay: GSK3β phosphorylation (Ser9, Tyr216) immunoblot in HEK293 cells; format: cell-based, human; conditions: for impact on GSK3β Ser9 or GSK3β Tyr216 phosphorylation prior to degradation: 10 nM 24, 27, 10 nM and 1 µM 29, 30 min
Experimental: HEK293, HAP1, HAP1 CRBN KO and SH-SY5Y cells were plated in either 6 cm plates or 6-well plates at varying densities (0.5–0.7 × 10^6 cells per plate or wells), and MEF cells were plated in 10 cm plates (1–1.2 × 10^6 cells per plate) depending on experimental set up in respective culturing condition as described above. Stock solutions of compounds were prepared as 10 mM in DMSO (Sigma–Aldrich). Working dilutions were made up fresh in DMSO and culturing media or differentiation media was refreshed prior to any compound treatments. For mode of action studies, cells were pre-treated with inhibitors for 2 h: 1 µM MG132 (Merck, 474790-5 mg), 1 µM MLN4924 (Merck, 5054770001) or 1 µM GSK3 inhibitor (compound 29), before treating with PROTACs for 2, 4 or 24 h as indicated in figure legends. Cells were washed twice with ice-cold PBS (Gibco), harvested in PBS and pelleted, cells were resuspended in RIPA buffer supplemented with complete EDTA-free protease inhibitor cocktail (Roche,11873580001, 1/10 mL) and phosSTOP (Roche, 04906845001, 1 tablet/10 mL) for 20 min lysis on ice then cleared via centrifugation at 16,000 × g, 4 °C for 20 min. SH-SY5Y cells were lysed in 500 µL ice-cold lysis buffer (25 mM Tris-HCl (pH 7.4), 50 mM NaF, 100 mM NaCl, 1 mM EDTA, 4 mM EGTA, 1% (v/v) Triton-X-100, 0.09% (w/v) sucrose, 10 mM sodium pyrophosphate, 10 mM sodium vanodate, 0.1% (v/v) β-mercaptoethanol, supplemented with complete mini protease inhibitor tablet (Sigma; 1 tablet/ 10 mL buffer)). Lysates were flash frozen, thawed and centrifugated at 16,000 × g, 4 °C for 20 min. Following clearance of lysates, protein concentrations were determined by the BCA assay (Fisher Scientific, 23225) or Bradford assay (Bio-rad). Five to thirty micrograms of protein from lysates were prepared in 4×LDS buffer (Thermo Fisher) and 50 mM dithiothreitol (DTT) denaturated at 95 °C for 5 min. Proteins were separated on NuPAGE 4–12% Bis-Tris gels (Invitrogen) or 4–12% Novex Tris-glycine gels (Invitrogen) in MOPS buffer (Invitrogen) and transferred onto nitrocellulose membranes using an iBlot3 system (Thermo Fisher Scientific) or nitrocellulose membranes (Cytiva) in cold tris-glycine-methanol buffer (25 mM Tris (pH 7.5), 192 mM glycine, 20% (v/v) methanol). Membranes were blocked with either 5% fat-free milk (Marvel) or 1% (w/v) BSA (Sigma) in TBS-T (20 mM Tris (pH 7.5), 150 mM NaCl, 0.1% (v/v) Tween-20 (Sigma)) at room temperature for 30 min, or in the case of SH-SY5Y assays, 1 h, before incubating with primary antibodies overnight at 4 °C on a rocker. […]

[5] = test system: HEK293 cells phosphoproteome; assay: Phosphoproteomics in HEK293 cells; format: cell-based, human; design: scale not given here; conditions: phosphosite abundance difference
Experimental: IMAC beads were prepared from Ni-NTA (nitrilotriacetic acid) superflow agarose beads. The nickel was stripped with 100 mM EDTA and incubated in an aqueous solution of 10 mM iron (III) chloride (FeCl3). Dried peptide fractions were reconstituted to a concentration of 0.5 μg/μL in 80% ACN/0.1% TFA. Peptide mixtures were enriched for phosphorylated peptides with 5 μL IMAC beads for 30 min with end-to-end rotation.
Enriched IMAC beads were loaded on Empore C18 silica-packed stage tips. Stage tips were equilibrated with acetonitrile followed by 50% ACN/0.1% FA then 1% FA. The beads with enriched peptides were loaded onto C18 stage tips and washed with 80% ACN/0.1% TFA. Phosphorylated peptides were eluted from IMAC beads with 500 mM dibasic sodium phosphate, pH 7.0. These peptides were washed with 1% FA before elution using 50% acetonitrile in 0.1% FA. The peptides were then dried by SpeedVac and stored at −20 °C until mass spectrometry analysis. The dried phosphopeptides were reconstituted in 0.1% formic acid and analyzed on an Orbitrap Ascend mass spectrometer coupled to a Thermo Fisher Scientific Vanquish Neo UHPLC. […] The total run time was set to 155 min. A survey full scan MS (from m/z 350–1500) was acquired in the Orbitrap at a resolution of 120,000 at 200 m/z. The most intense ions with charge state ≥2 were isolated and fragmented using higher collision dissociation (HCD) fragmentation, with 30% normalised collision energy, and detected at a mass resolution of 50,000 at 200 m/z. The isolation window was set at 1.6. The phosphoproteomics raw data were searched using SEQUEST HT search engines with Proteome Discoverer 3.0 (Thermo Fisher Scientific). The following parameters were used for searches: Precursor mass tolerance 10 ppm, fragment mass tolerance 0.02, enzyme: trypsin, […], fixed modification: carbamidomethylation of cysteine residues and TMT of lysine and N-terminal, dynamic modification: oxidation of methionine and phosphorylation of serine, threonine and tyrosine. The data were filtered for 1% PSM and peptide level. A two-tailed t-test with 250 randomisations was performed in Perseus software (v1.6.15.0) to assess statistical significance between groups. The resulting data were visualised as a volcano plot using GraphPad Prism (v10.1.2).

[6] = biological target: T1, GSK3β-HiBiT (GSK3β-HiBiT KI HEK293 cells) (Homo sapiens, UniProt P49841); assay: HiBiT lytic degradation assay / high-throughput screen, 24 h; format: cell-based; conditions: 24 h treatment
T1 construct: we generated endogenously tagged GSK3β-HiBiT knock-in (KI) HEK293 cells; endogenous in cells; host or cells: GSK3β-HiBiT knock-in HEK293 cells (CRISPR/Cas9, single-cell clone)
T1 sequence (P49841 whole entry): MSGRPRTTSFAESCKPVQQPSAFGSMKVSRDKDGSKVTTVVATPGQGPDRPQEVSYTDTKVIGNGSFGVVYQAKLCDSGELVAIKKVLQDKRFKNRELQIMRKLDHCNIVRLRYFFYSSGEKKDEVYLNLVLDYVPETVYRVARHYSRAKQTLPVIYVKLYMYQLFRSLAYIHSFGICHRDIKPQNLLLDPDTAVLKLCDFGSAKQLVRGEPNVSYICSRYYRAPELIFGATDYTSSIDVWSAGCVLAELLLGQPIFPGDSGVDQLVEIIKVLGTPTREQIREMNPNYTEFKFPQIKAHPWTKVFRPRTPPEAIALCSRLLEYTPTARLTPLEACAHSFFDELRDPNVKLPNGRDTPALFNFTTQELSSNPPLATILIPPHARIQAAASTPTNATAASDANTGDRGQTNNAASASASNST
Experimental: Crude compounds were assumed to be 10 mM concentration in DMSO and after generating libraries directly used in biological tests in degradation screens. Stock solutions were serially diluted into white bottom opaque 384-well plates (Perkin Elmer) using Echo500 (Labcyte) and DMSO was backfilled to maintain same DMSO content in each well for all concentrations. […] HiBiT lytic assay buffer (Promega) prepared according to the manufacturer’s instructions and added onto each well using Multidrop^TM Combi reagent dispenser. Luminescence signal was measured on PheraStar plate reader (BMG) and obtained data normalised to DMSO conditions using Excel and further analysed using GraphPad Prism (v10.1.2) and degradation curves were generated using 4-parameter non-linear regression fit to calculate DC50 and Dmax values. Data points associated with concentrations displaying a hook effect were excluded prior to DC50 and Dmax calculation.

Scaled Microsomal Stability MuClint [1]: 15 ml/min/g liver | Scaled Microsomal Stability RatClint [2]: 2.6 ml/min/g liver | Scaled Microsomal Stability HuClint [3]: 27 ml/min/g liver
Structure (SMILES): O=C1CCC(NC(=O)c2ccc(CN3CCN(CCCCCc4cn(-c5ccc(-c6cn7nccc(C(=O)Nc8cnccc8N8CCOCC8)c7n6)cc5)nn4)CC3)cc2F)C(=O)N1 (centres unmarked) [compound 21]

Structure (SMILES): CN1C(=O)CCN(c2nn(C)c3cc(CN4CCN(Cc5ccc(-c6cn(-c7ccc(-c8cn9nccc(C(=O)Nc%10cnccc%10N%10CCOCC%10)c9n8)cc7)nn6)nc5)CC4)ccc23)C1=O [compound 27]
impact on GSK3β Ser9 or GSK3β Tyr216 phosphorylation prior to degradation [4]: no impact observed | Difference, E2F8 A0AVK6 1xPhospho [S68(99.5)] ([5]; 27 vs DMSO, MOESM7): -0.2137 | Difference, E2F8 A0AVK6 1xPhospho [S417(100)] ([5]; 27 vs DMSO, MOESM7): 0.1148 | Difference, GATD3B A0A0B4J2D5 1xPhospho [S98(100)] ([5]; 27 vs DMSO, MOESM7): 0.02358 | Difference, SIK1B A0A0B4J2F2 1xPhospho [S575(100)] ([5]; 27 vs DMSO, MOESM7): 0.09328 | Difference, UBA6 A0AVT1 1xPhospho [S36(100)] ([5]; 27 vs DMSO, MOESM7): 0.2252 | Difference, A0JNW5 1xPhospho [S414(100)] UHRF1BP1L ([5]; 27 vs DMSO, MOESM8): 0.1475 | Difference, A0JNW5 1xPhospho [S953(99.7)] UHRF1BP1L ([5]; 27 vs DMSO, MOESM8): -0.0085 | Difference, A0MZ66 1xPhospho [S506(100)] SHTN1 ([5]; 27 vs DMSO, MOESM8): 0.1099 | Difference, A0MZ66 1xPhospho [S512(100)] SHTN1 ([5]; 27 vs DMSO, MOESM8): 0.06022 | Difference, A0MZ66 1xPhospho [T537(100)] SHTN1 ([5]; 27 vs DMSO, MOESM8): -0.2879 | Difference, Q5PRF9 1xPhospho [S592(100)] SAMD4B ([5]; vs DMSO, MOESM9): 0.05893 | Difference, Q8NEM7 1xPhospho [S437(100)] SUPT20H ([5]; vs DMSO, MOESM9): 0.2274 | Difference, Q96KQ7 1xPhospho [S140(100)] EHMT2 ([5]; vs DMSO, MOESM9): 0.333 | Difference, Q15398 1xPhospho [S725(100)] DLGAP5 ([5]; vs DMSO, MOESM9): 0.1236 | Difference, Q15911 1xPhospho [S426(100)] ZFHX3 ([5]; vs DMSO, MOESM9): 0.1806

Structure (SMILES): O=C(Nc1cnccc1N1CCOCC1)c1ccnn2cc(-c3ccc(Br)cc3)nc12 [compound 29]
impact on GSK3β Ser9 or GSK3β Tyr216 phosphorylation prior to degradation [4]: no impact observed | phosphorylation of Tyr216 after 2 h ([4]; 1 µM, 2 h): some reduction in phosphorylation of Tyr216

Dmax ([6]; HEK293, crude mixture, stock assumed 10 mM): 81% | Dmax ([6]; HEK293, pure (resynthesised, HPLC purified) compound): 73%
Structure (SMILES): O=C1CCC(NC(=O)c2ccc(CN3CCN(CCCc4cn(-c5ccc(-c6cn7nccc(C(=O)Nc8cnccc8N8CCOCC8)c7n6)cc5)nn4)CC3)cn2)C(=O)N1 (centres unmarked) [compound 23]
